Data published in article PMC3544137, “Isolation identification and biochemical characterization of a novel halo-tolerant lipase from the metagenome of the marine sponge Haliclona simulans” (Microbial Cell Factories, 2012).

Biological target: T1, Lpc53E1 (uncultured bacterium, UniProt I4AY78)
T1 construct: primer-encoded N-terminus MKSRLNDI
Test: p-nitrophenol release at […] nm, Lineweaver-Burk
Format: biochemical
Details: pH 7, 40 °C; unit printed as mM^-1 (presumably mM); unit of the source corrected

T1 sequence (I4AY78 1-387 limits assumed): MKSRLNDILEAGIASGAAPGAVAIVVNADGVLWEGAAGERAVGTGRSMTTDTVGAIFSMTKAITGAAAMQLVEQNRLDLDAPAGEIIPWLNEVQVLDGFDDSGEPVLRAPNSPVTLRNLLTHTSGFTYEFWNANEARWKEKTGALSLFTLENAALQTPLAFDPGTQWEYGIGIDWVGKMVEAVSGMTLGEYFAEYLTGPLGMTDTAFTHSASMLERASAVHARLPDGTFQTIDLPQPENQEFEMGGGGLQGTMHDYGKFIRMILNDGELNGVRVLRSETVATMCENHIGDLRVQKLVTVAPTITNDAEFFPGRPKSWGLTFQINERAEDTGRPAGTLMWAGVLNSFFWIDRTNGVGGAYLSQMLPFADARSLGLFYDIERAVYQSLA

CCCCCCCCCCCCCCCC(=O)Oc1ccc([N+](=O)[O-])cc1 [pNPP, p-nitrophenyl palmitate]
KM: 1.09 mM
